Results: US10519145B2, “Pyrazole-oxazolidinone compound for anti-hepatitis B virus” (Shanghai Zhimeng Biopharma Co., Ltd., priority 2016, dated 2019)

Legend:
[1] = test system: HBV (HepG2.2.15 cells); test: Anti-HBV activity experiment in vitro (HepG2.2.15, HBV DNA in supernatant, qPCR); assay type: cell-based; settings: Hepatitis B virus, HBV DNA in supernatant by qPCR, eighth day
Method: Compound Dilution: initial concentrations of all compounds used in the anti-HBV activity experiments in vitro were 1 μM, 3-fold diluted into 8 concentrations; initial concentrations of all compounds used in the cytotoxicity assay were 100 μM, 3-fold diluted into 8 concentrations; and the mother liquor of the compound was diluted with DMSO.
(§1) Anti-HBV Activity Experiment In Vitro: HepG2.2.15 cells (4×10^4 cells/well) were seeded in 96-well plates and cultured overnight at 37° C. in 5% CO2. The next day, fresh cultures containing compounds in different concentrations were added into the culture wells. On the fifth day, the old culture medium in the culture wells was aspirated and removed. Fresh medium containing compounds in different concentrations was added. On the eighth day, supernatants in the culture wells were collected and used to extract HBV DNA in the supernatant. qPCR assay was used to detect HBV DNA content in the HepG2.2.15 supernatant.
The data analysis and the percentage of inhibition calculation: the percentage of inhibition was calculated by using the following formula: Inhibition %=[(HBV amount in DMSO control−HBV amount in sample)/HBV amount in DMSO control]×100%.

[2] = Pharmacokinetic determination in rats (IV and PO); assay type: in vivo, Sprague Dawley rats; settings: rat
Method: The pharmacokinetics of the compound of Example 3 (racemate) in the present application was determined in rats.
Test compounds were intravenously (IV) and orally (P0) administered to Sprague Dawley rats once. Blood samples were collected at different time points. LC/MS/MS was used to determine the concentration of the test compounds in the rat plasma after the administration of the test compounds and calculate the relating parameters.
Time points for animal blood collection were: before administration, 5 min, 15 min, 30 min, 1 h, 2 h, 4 h, 6 h, 8 h and 24 h after administration. Approximately 0.3 mL of blood via jugular or other appropriate venipuncture was collected from each animal and anticoagulated with heparin sodium. Blood samples were collected and placed on ice, and plasma was centrifuged (centrifugation: 8000 rpm, 6 min, 4° C.). Plasma samples were stored in a −70° C. freezer before analysis.
50 μL of sample was taken into a 1.5 mL centrifuge tube, and 250 μL of internal standard solution was added. After subjected to vortex for 60 seconds and centrifugation for 5 min (14,000 revolutions/min), 200 μL of supernatant was taken into a 96-well sample plate for analysis.
Mass spectrometer: API 4000, Applied Biosystems, Inc., Electrospray Ionization Source (ESI), Tandem quadrupole mass analyzer.
Mass spectrometry conditions: ion source: electrospray ionization source (ESI); auxiliary gas (Gas1): 60 psi; auxiliary gas (Gas2): 60 psi; curtain gas (CUR): 14 psi; collision gas (CAD): 6; ion source voltage (IS): 5500V; ion source temperature (TEM): 550° C.
Liquid phase conditions: chromatography Column: Thermo AQUASIL C18 (50×2.1 mm); chromatographic mobile phase: A is 0.1% formic acid in water, solution B is 0.1% formic acid in methanol (A:B=80%: 20%-10%: 90%); flow rate: 500 μL/min; injection volume: 1 μL.
According to the drug blood concentration data, the pharmacokinetic parameters of the test compound were calculated using the pharmacokinetic calculation software WinNonlin 5.2 non-compartmental model.

[3] = test system: HBV genotype AB033554 (B); test: Anti-different genotypic HBV strain activity assay in vitro, transient transfection; assay type: cell-based; settings: Hepatitis B virus, HepG2
Method: as §1, with “Compounds were tested for in vitro activity against different genotypic HBV strains using a transient transfection cell model. HepG2 cells” for “Anti-HBV Activity Experiment In Vitro: HepG2.2.15 cells”, “cells/well) that had been transfected with different HBV genotypic strains” for “cells/well)”, “seeded into” for “seeded in”, “removed. The fresh” for “removed. Fresh”, “to detected” for “to detect”, “the HepG2” for “the HepG2.2.15”

[4] = test system: HBV genotype AB246345 (C); test: as above; assay type: cell-based; settings: Hepatitis B virus, HepG2
Method: as §1, with “Compounds were tested for in vitro activity against different genotypic HBV strains using a transient transfection cell model. HepG2 cells” for “Anti-HBV Activity Experiment In Vitro: HepG2.2.15 cells”, “cells/well) that had been transfected with different HBV genotypic strains” for “cells/well)”, “seeded into” for “seeded in”, “removed. The fresh” for “removed. Fresh”, “to detected” for “to detect”, “the HepG2” for “the HepG2.2.15”

[5] = test system: HBV genotype AB246346 (C); test: as above; assay type: cell-based; settings: Hepatitis B virus, HepG2
Method: as §1, with “Compounds were tested for in vitro activity against different genotypic HBV strains using a transient transfection cell model. HepG2 cells” for “Anti-HBV Activity Experiment In Vitro: HepG2.2.15 cells”, “cells/well) that had been transfected with different HBV genotypic strains” for “cells/well)”, “seeded into” for “seeded in”, “removed. The fresh” for “removed. Fresh”, “to detected” for “to detect”, “the HepG2” for “the HepG2.2.15”

[6] = test system: HBV genotype AP007263 (A); test: as above; assay type: cell-based; settings: Hepatitis B virus, HepG2
Method: as §1, with “Compounds were tested for in vitro activity against different genotypic HBV strains using a transient transfection cell model. HepG2 cells” for “Anti-HBV Activity Experiment In Vitro: HepG2.2.15 cells”, “cells/well) that had been transfected with different HBV genotypic strains” for “cells/well)”, “seeded into” for “seeded in”, “removed. The fresh” for “removed. Fresh”, “to detected” for “to detect”, “the HepG2” for “the HepG2.2.15”

[7] = test system: HBV genotype HE974371 (A2); test: as above; assay type: cell-based; settings: Hepatitis B virus, HepG2
Method: as §1, with “Compounds were tested for in vitro activity against different genotypic HBV strains using a transient transfection cell model. HepG2 cells” for “Anti-HBV Activity Experiment In Vitro: HepG2.2.15 cells”, “cells/well) that had been transfected with different HBV genotypic strains” for “cells/well)”, “seeded into” for “seeded in”, “removed. The fresh” for “removed. Fresh”, “to detected” for “to detect”, “the HepG2” for “the HepG2.2.15”

[8] = test system: HBV genotype JN406371 (B); test: as above; assay type: cell-based; settings: Hepatitis B virus, HepG2
Method: as §1, with “Compounds were tested for in vitro activity against different genotypic HBV strains using a transient transfection cell model. HepG2 cells” for “Anti-HBV Activity Experiment In Vitro: HepG2.2.15 cells”, “cells/well) that had been transfected with different HBV genotypic strains” for “cells/well)”, “seeded into” for “seeded in”, “removed. The fresh” for “removed. Fresh”, “to detected” for “to detect”, “the HepG2” for “the HepG2.2.15”

[9] = test system: HBV genotype U95551 (D); test: as above; assay type: cell-based; settings: Hepatitis B virus, HepG2
Method: as §1, with “Compounds were tested for in vitro activity against different genotypic HBV strains using a transient transfection cell model. HepG2 cells” for “Anti-HBV Activity Experiment In Vitro: HepG2.2.15 cells”, “cells/well) that had been transfected with different HBV genotypic strains” for “cells/well)”, “seeded into” for “seeded in”, “removed. The fresh” for “removed. Fresh”, “to detected” for “to detect”, “the HepG2” for “the HepG2.2.15”

[10] = test system: HBV strain U95551 (WT); test: In vitro anti-nucleoside drug-resistant HBV strain activity experiment, transient transfection; assay type: cell-based; settings: Hepatitis B virus, transfected HepG2 cells
Method: as §1, with “Compounds were tested for in vitro activity against nucleoside drug-resistant HBV strains using a transient transfection cell model. HepG2 cells” for “Anti-HBV Activity Experiment In Vitro: HepG2.2.15 cells”, “cells/well) that had been transfected with nucleoside drug-resistant HBV strains” for “cells/well)”, “seeded into” for “seeded in”, “removed. The fresh” for “removed. Fresh”, “the HepG2” for “the HepG2.2.15”

[11] = test system: nucleoside drug-resistant HBV strain L180M + M204V; test: as above; assay type: cell-based; settings: Hepatitis B virus, HepG2, 192 h
Method: as §1, with “Compounds were tested for in vitro activity against nucleoside drug-resistant HBV strains using a transient transfection cell model. HepG2 cells” for “Anti-HBV Activity Experiment In Vitro: HepG2.2.15 cells”, “cells/well) that had been transfected with nucleoside drug-resistant HBV strains” for “cells/well)”, “seeded into” for “seeded in”, “removed. The fresh” for “removed. Fresh”, “the HepG2” for “the HepG2.2.15”

[12] = test system: nucleoside drug-resistant HBV strain M204I + S202G + M250V; test: as above; assay type: cell-based; settings: Hepatitis B virus, HepG2, 192 h
Method: as §1, with “Compounds were tested for in vitro activity against nucleoside drug-resistant HBV strains using a transient transfection cell model. HepG2 cells” for “Anti-HBV Activity Experiment In Vitro: HepG2.2.15 cells”, “cells/well) that had been transfected with nucleoside drug-resistant HBV strains” for “cells/well)”, “seeded into” for “seeded in”, “removed. The fresh” for “removed. Fresh”, “the HepG2” for “the HepG2.2.15”

[13] = test system: nucleoside drug-resistant HBV strain M204I + S202G; test: as above; assay type: cell-based; settings: Hepatitis B virus, HepG2, 192 h
Method: as §1, with “Compounds were tested for in vitro activity against nucleoside drug-resistant HBV strains using a transient transfection cell model. HepG2 cells” for “Anti-HBV Activity Experiment In Vitro: HepG2.2.15 cells”, “cells/well) that had been transfected with nucleoside drug-resistant HBV strains” for “cells/well)”, “seeded into” for “seeded in”, “removed. The fresh” for “removed. Fresh”, “the HepG2” for “the HepG2.2.15”

[14] = test system: nucleoside drug-resistant HBV strain M204I + V173L; test: as above; assay type: cell-based; settings: Hepatitis B virus, HepG2, 192 h
Method: as §1, with “Compounds were tested for in vitro activity against nucleoside drug-resistant HBV strains using a transient transfection cell model. HepG2 cells” for “Anti-HBV Activity Experiment In Vitro: HepG2.2.15 cells”, “cells/well) that had been transfected with nucleoside drug-resistant HBV strains” for “cells/well)”, “seeded into” for “seeded in”, “removed. The fresh” for “removed. Fresh”, “the HepG2” for “the HepG2.2.15”

[15] = test system: nucleoside drug-resistant HBV strain M204I; test: as above; assay type: cell-based; settings: Hepatitis B virus, HepG2
Method: as §1, with “Compounds were tested for in vitro activity against nucleoside drug-resistant HBV strains using a transient transfection cell model. HepG2 cells” for “Anti-HBV Activity Experiment In Vitro: HepG2.2.15 cells”, “cells/well) that had been transfected with nucleoside drug-resistant HBV strains” for “cells/well)”, “seeded into” for “seeded in”, “removed. The fresh” for “removed. Fresh”, “the HepG2” for “the HepG2.2.15”

[16] = Sprague Dawley, IV, single administration, plasma
[17] = Sprague Dawley, PO, single administration, plasma

Compound: O=C1COC(c2cn(-c3ccc(Br)cc3)nc2-c2ccc(F)cc2)N1CCc1ccc2[nH]c(=O)[nH]c2c1 (racemic) [example 3 racemate, 3-(2-(2-oxo-2,3-dihydro-1H-benzo[d]imidazol-5-yl)ethyl)-2-(1-(4-bromophenyl)-3-(4-fluorophenyl)-1H-pyrazol-4-yl)-oxazolidin-4-one]
- EC50 [1]: 0.0312 µM
- Vd ([2]; Sprague Dawley, plasma, IV, single administration, read-out: Vz): 6.22 L/kg
- AUC(0-inf) [2, 16]: 3.88 µg·h/mL
- Cmax [2, 16]: 5.46 µg/mL
- Tmax [2, 16]: 0.083 h
- half-life [2, 16]: 3.52 h
- AUC(0-inf) [2, 17]: 0.773 µg·h/mL
- Cmax [2, 17]: 0.201 µg/mL
- Tmax [2, 17]: 0.83 h
- half-life [2, 17]: 2.07 h
- CLz ([2]; IV, single administration): 1.31 L/h/kg
- F ([2]; PO vs IV): 18.55%
- Vz ([2]; PO, single administration): 3.58 L/kg

Compound: O=C1Cc2cc(CCN3C(=O)COC3c3cn(-c4ccc(Br)cc4)nc3-c3ccc(F)cc3)ccc2N1 (racemic) [example 13 racemate]
- EC50 [1]: 0.022 µM
- EC50 [3]: 0.047 µM
- EC50 [4]: 0.0309 µM
- EC50 [5]: 0.0592 µM
- EC50 [6]: 0.168 µM
- EC50 [7]: 0.0325 µM
- EC50 [8]: 0.036 µM
- EC50 [9]: 0.0868 µM
- EC50 [10]: 0.082 µM
- EC50 [11]: 0.103 µM
- EC50 [12]: 0.0874 µM
- EC50 [13]: 0.0747 µM
- EC50 [14]: 0.0722 µM
- EC50 [15]: 0.0758 µM
